The assay has as its target Neuromedin-K receptor (NK-3) (Homo sapiens) (UniProt P29371). Kind of assay: Displacement of [MePhe7]-NKB from human recombinant NK3 receptor at 10 uM.

Structures are written as SMILES. Activity calls are given as the source filed them. The calls are words filed in the database; no cut-off is given here. Peptide text beside a SMILES is read from it.

Chain of Neuromedin-K receptor (NK-3) (Homo sapiens) (P29371 whole entry, looked up): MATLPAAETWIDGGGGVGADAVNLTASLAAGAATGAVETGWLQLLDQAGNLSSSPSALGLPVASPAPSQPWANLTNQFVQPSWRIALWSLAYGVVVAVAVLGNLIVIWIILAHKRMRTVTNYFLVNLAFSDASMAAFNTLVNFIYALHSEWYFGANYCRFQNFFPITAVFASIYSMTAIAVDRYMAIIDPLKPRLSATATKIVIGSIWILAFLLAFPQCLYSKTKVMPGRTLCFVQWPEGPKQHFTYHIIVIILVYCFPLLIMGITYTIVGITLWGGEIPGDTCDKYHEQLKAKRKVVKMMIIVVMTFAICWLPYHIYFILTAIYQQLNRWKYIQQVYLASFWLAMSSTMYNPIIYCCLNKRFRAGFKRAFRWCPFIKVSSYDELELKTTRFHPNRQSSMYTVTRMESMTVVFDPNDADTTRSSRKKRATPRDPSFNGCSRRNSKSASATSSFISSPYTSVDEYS

Consider `NC(=O)[C@H](Cc1ccccc1)NC(=O)[C@@H](N)Cc1ccccc1` (H-Phe-Phe-NH2), for which the result was inactive.

Values taken from ChEMBL document CHEMBL1157632, “Discovery of dipeptides with high affinity to the specific binding site for substance P1-7” (J Med Chem, 2010).
